Source: US8865426B2, “Screening method using gelatinase-mediated EphA4 cleavage reaction as an indicator” (Eisai R&D Management Co., Ltd., priority 2010, dated 2014)

Columns and labels:
[1] = tested on: gelatinase (MMP-2, MMP-9)-mediated EphA4 ectodomain cleavage reaction; experiment: ELISA assay of NMDA-induced EphA4 cleavage (EphA4 ectodomain in cultured solution) in hippocampal primary cultured neurons; assay type: cell-based, rat
Procedure: (§1) With the aim of identifying proteases which cleave off the EphA4 ectodomain in a neuronal activity-dependent manner, analysis was first performed using a specific inhibitor of gelatinase family molecules (MMP-2, MMP-9) having important functions in the brain. Neurostimulation was performed with 50 μM NMDA, and the inhibitor used was mmp-2/9 Inhibitor II ((2R)-[(4-biphenylylsulfonyl)amino]-N-hydroxy-3-phenylpropionamide, Merck). For detection of cleavage reaction, two types of antibody-based assays were used, i.e., Western blot assay using an antibody capable of recognizing the EphA4 endodomain and ELISA assay using an antibody capable of recognizing the EphA4 ectodomain.
(§2) Hippocampi were isolated from SD rats at 18 days of embryonic age (Charles River Laboratories, Inc.) and provided for culture. More specifically, fetuses were aseptically taken from pregnant rats. From these fetuses, brains were excised and soaked in 20% FBS (Hyclone)/HBSS (SIGMA). From the excised brains, hippocampi were collected under a stereoscopic microscope. […] On the other hand, the neuronal cells were collected with PBS and then quantified for their protein levels, and 10 μg aliquots were subjected to SDS-PAGE, followed by Western blotting with an anti-EphA4 antibody capable of recognizing the endodomain.

[2] = tested on: gelatinase (MMP-2, MMP-9)-mediated EphA4 ectodomain cleavage reaction; experiment: Western blot assay of NMDA-induced EphA4 cleavage (EphA4 endodomain fragment) in hippocampal primary cultured neurons; assay type: cell-based, rat
Procedure: as §1, §2

| SMILES | neuronal activity-dependent EphA4 ectodomain cleavage reaction in hippocampal primary cultured neurons (summary statement) ([1]; concentration not given) | EphA4 cleavage event detected by ELISA with antibody recognizing the EphA4 ectodomain ([1]; hippocampal neuronal cells stimulated with 50 μM NMDA, 5 μM inhibitor, FIG. 2B) | EphA4 cleavage reaction (EphA4 endodomain fragment, Western blot) ([2]; hippocampal neuronal cells stimulated with 50 μM NMDA, 0, 1, 5, 10 or 25 μM inhibitor added, FIG. 2A) | induction of EphA4 cleavage reaction (EphA4 endodomain fragment detected) ([2]; hippocampal neuronal cells, 50 μM NMDA, 30 minutes, FIG. 2) |
| --- | --- | --- | --- | --- |
| O=C(NO)[C@@H](Cc1ccccc1)NS(=O)(=O)c1ccc(-c2ccccc2)cc1 [mmp-2/9 Inhibitor II, (2R)-[(4-Biphenylylsulfonyl)amino]-N-hydroxy-3-phenylpropionamide] | completely inhibited | completely inhibited | inhibited in a concentration-dependent manner | – |
| CN[C@H](CC(=O)O)C(=O)O [NMDA] | – | – | – | induced |
